This note sets out measurements from PubChem BioAssay (NCI).

Some test systems named below: A498 renal; ACHN renal; RPMI-8226 leukemia; U251 CNS; LOX IMVI melanoma; OVCAR-4 ovarian; SK-MEL-28 melanoma; NCI-H226 lung; SR leukemia; SK-OV-3 ovarian.
Holding throughout (test): growth of human tumour cells (NCI), 48 h

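Interpolation was linear, between the two tested concentrations surrounding the appropriate level; five concentrations were tested over 48 hours in 96-well plates. GI50 = concentration required for 50% inhibition of growth. TGI is the concentration that stops growth completely.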

`COc1ccc(C2[C@@H](Cl)C(=O)N2c2cc(OC)c(OC)c(OC)c2)cc1Cl` (some centres not stated): the GI50 with A498 renal was 28.5 nM; with ACHN renal, 79.8 nM; with RPMI-8226 leukemia, 279 nM; with U251 CNS it was 197 nM; in the test on LOX IMVI melanoma, 163 nM; in the test with OVCAR-4 ovarian, 0.837 µM. Besides, the GI50 with SK-MEL-28 melanoma is 654 nM; in the test on NCI-H226 lung it was 239 nM; in the test on SR leukemia, 55.1 nM; in the test on SK-OV-3 ovarian it was 290 nM. For the same compound, the TGI is 0.263 µM in the test with A498 renal; 49.1 µM in the test with ACHN renal; 3.47 µM in the test with RPMI-8226 leukemia; 21.3 µM in the test on U251 CNS; 20.8 µM with LOX IMVI melanoma; above 100 µM with OVCAR-4 ovarian. Besides, the TGI with SK-MEL-28 melanoma is 87.3 µM; in the test on NCI-H226 lung it was 34 µM; in the test on SR leukemia, above 100 µM; with SK-OV-3 ovarian, above 100 µM.
Turning to `BrCc1ccc(CBr)cc1`, the GI50 in the test with A498 renal is 18300 nM; with ACHN renal, 1940 nM; with RPMI-8226 leukemia, 3100 nM; in the test on U251 CNS it was 6250 nM; with LOX IMVI melanoma, 4510 nM; in the test with OVCAR-4 ovarian, 8.96 µM. The GI50 was 8290 nM in the test on SK-MEL-28 melanoma, 5370 nM in the test on NCI-H226 lung, above 100000 nM with SR leukemia and 477 nM in the test with SK-OV-3 ovarian. For the same compound, the TGI was 38.1 µM with A498 renal; 6.78 µM with ACHN renal; 13.3 µM in the test on RPMI-8226 leukemia; above 100 µM in the test with U251 CNS; above 100 µM in the test with LOX IMVI melanoma; 22.4 µM in the test on OVCAR-4 ovarian. Besides, the TGI in the test with SK-MEL-28 melanoma was 23.3 µM; with NCI-H226 lung, 15.6 µM; with SR leukemia, above 100 µM; with SK-OV-3 ovarian, 7.24 µM.
As for `C[C@@H]1O[C@@H](O[C@H]2CC[C@@]3(C)[C@H](CCC4[C@@H]3C(O)C[C@]3(C)[C@@H](c5ccc(=O)oc5)CC[C@]43O)C2)[C@H](O)[C@H](O)[C@H]1O` (some centres not stated), the GI50 is 8.59 nM in the test with A498 renal; below 3.25 nM with ACHN renal; 7.92 nM in the test with RPMI-8226 leukemia; 5.2 nM in the test on U251 CNS; 5.19 nM in the test with LOX IMVI melanoma; below 0.00325 µM in the test on OVCAR-4 ovarian. Besides, the GI50 was 6.2 nM in the test with SK-MEL-28 melanoma, 6.08 nM in the test with NCI-H226 lung, 3.88 nM in the test on SR leukemia and 5.02 nM with SK-OV-3 ovarian. The TGI in the test on A498 renal was determined as 0.0357 µM; in the test on ACHN renal, 0.00803 µM; with RPMI-8226 leukemia, 0.0278 µM; in the test with U251 CNS, 0.00974 µM; in the test on LOX IMVI melanoma, 0.0101 µM; in the test with SK-MEL-28 melanoma, 0.0119 µM. In addition, the TGI with NCI-H226 lung was 0.0107 µM; in the test on SR leukemia, 0.0109 µM; in the test with SK-OV-3 ovarian, 0.00987 µM.
On to `C#CCOc1cccc(Nc2ncnc3c(NC(=O)CCl)cccc23)c1`, for which the GI50 was above 100000 nM in the test on A498 renal; 18100 nM with ACHN renal; 20900 nM in the test on RPMI-8226 leukemia; 19400 nM in the test with U251 CNS; 1700 nM in the test on LOX IMVI melanoma; 37.1 µM with OVCAR-4 ovarian. Moreover, the GI50 in the test with SK-MEL-28 melanoma was 36400 nM; in the test on NCI-H226 lung it was 33400 nM; with SR leukemia, 6060 nM; with SK-OV-3 ovarian it was 51200 nM. Also, the TGI in the test with A498 renal is above 100 µM; in the test with ACHN renal, 37.8 µM; in the test with RPMI-8226 leukemia it was 43.9 µM; with U251 CNS, 38.1 µM; in the test with LOX IMVI melanoma, 3.47 µM; with OVCAR-4 ovarian, above 100 µM. Moreover, the TGI in the test with SK-MEL-28 melanoma was above 100 µM; with NCI-H226 lung it was above 100 µM; in the test with SR leukemia, 31.7 µM; with SK-OV-3 ovarian, above 100 µM.
Regarding `COc1ccc2c(c1)OC1=C(C(=O)OC1)C2c1cc(OC)c2c(c1)OCO2` (configuration not stated), the GI50 in the test with A498 renal is 20.5 nM; in the test on ACHN renal, 267 nM; in the test with RPMI-8226 leukemia it was 48.7 nM; in the test with U251 CNS, 42.9 nM; in the test on LOX IMVI melanoma, 68.3 nM; in the test with OVCAR-4 ovarian, 0.0597 µM. For the same compound, the GI50 was 34.2 nM with SK-MEL-28 melanoma, 48.9 nM in the test on NCI-H226 lung, 31.3 nM with SR leukemia and 33.6 nM in the test with SK-OV-3 ovarian. Also, the TGI was 0.0923 µM with A498 renal; above 100 µM in the test on ACHN renal; above 100 µM in the test with RPMI-8226 leukemia; above 100 µM in the test with U251 CNS; above 100 µM in the test on LOX IMVI melanoma; above 100 µM in the test on OVCAR-4 ovarian. For the same compound, the TGI with SK-MEL-28 melanoma and in the test with SR leukemia was above 100 µM each time.
`COc1cc(/C=C/[N+](=O)[O-])cc(Br)c1OC`: the GI50 in the test with A498 renal was 2030 nM; with ACHN renal it was 2500 nM; with RPMI-8226 leukemia it was 2590 nM; with U251 CNS, 1770 nM; in the test on LOX IMVI melanoma it was 899 nM; with OVCAR-4 ovarian, 7.65 µM. The GI50 was 2390 nM in the test on SK-MEL-28 melanoma, 16700 nM in the test with NCI-H226 lung, 2020 nM in the test with SR leukemia and 13400 nM in the test on SK-OV-3 ovarian. Further, the TGI was 8.53 µM in the test on A498 renal; 6.49 µM in the test on ACHN renal; 6.64 µM with RPMI-8226 leukemia; 3.75 µM with U251 CNS; 2.18 µM in the test on LOX IMVI melanoma; 20.8 µM with OVCAR-4 ovarian. Moreover, the TGI with SK-MEL-28 melanoma was 6.14 µM; in the test on NCI-H226 lung it was 52.8 µM; with SR leukemia, above 100 µM; in the test on SK-OV-3 ovarian, 26.5 µM.
In the case of `O=C(Nc1cccc(Nc2ncc(Br)c(NCCc3cnc[nH]3)n2)c1)N1CCCC1`, the GI50 with A498 renal is 4310 nM; in the test with ACHN renal, 11000 nM; in the test on RPMI-8226 leukemia it was 3900 nM; in the test on U251 CNS, 5220 nM; in the test on LOX IMVI melanoma it was 1110 nM; with OVCAR-4 ovarian, 3.71 µM. Further, the GI50 with SK-MEL-28 melanoma is 8600 nM; in the test with NCI-H226 lung, 771 nM; in the test on SR leukemia, 527 nM; in the test on SK-OV-3 ovarian, 4950 nM. For the same compound, the TGI in the test with A498 renal worked out at 16.6 µM; with ACHN renal it was 56 µM; in the test with RPMI-8226 leukemia it was 19.5 µM; in the test on U251 CNS, 45.8 µM; in the test with LOX IMVI melanoma, 7.4 µM; in the test on OVCAR-4 ovarian, 31.1 µM. Also, the TGI was determined as 28.6 µM with SK-MEL-28 melanoma, 4.74 µM with NCI-H226 lung, 28 µM in the test on SR leukemia and 32.4 µM in the test on SK-OV-3 ovarian.
